From US20250346845A1, “CELL-[…]” (TOPPAN HOLDINGS INC., priority 2023, published 2025) come the findings set out here.

Holding throughout (format): cell-based, human
What all share (details): drug added day 4, read day 7, general-purpose medium

The subject of series [1] is HT29 cells. As to the kind of experiment: Anti-cancer drug evaluation, HT29 cells, 2D culture method, ATP assay. The procedure: On the fourth day after the start of the culture, an anti-cancer drug SN-38 (Selleck, S4908) was added to the medium in each well at a concentration of 0, 0.01, 0.1, 1 or 10 μM. On the seventh day after the start of culture, the number of HT29 cells was counted by ATP assay. The cell viability was calculated using the above formula (2) to evaluate the drug efficacy.

Series [2] deals with HT29 cells. Put plainly: Anti-cancer drug evaluation, HT29 cells cultured using stromal stamp, ATP assay. The procedure: HT29 (ATCC, HTB-38), a human colon adenocarcinoma cell line, was seeded in the third vessel (24-well plate) in Table 3 above at 1×10^3 cells/well. The stromal stamp prepared in Example 1 was then placed on each well.
On the fourth day after the start of the culture, an anti-cancer drug SN-38 (Selleck, S4908) was added to the medium in each well at a concentration of 0, 0.01, 0.1, 1 or 10 μM. On the seventh day after the start of culture, the stromal stamps were removed and the number of HT29 cells was counted by ATP assay. The cell viability was calculated using the following formula (2) to evaluate the drug efficacy.

Series [3] relates to HT29 cells. As to the kind of experiment: Anti-cancer drug evaluation, HT29 cells on stromal cell layer, 3D culture method, EpCAM immunofluorescence. The procedure: 2.0×10^6 NHDFs and 3.0×10^4 HUVECs were suspended in an equal volume mixture of 150 μL of 0.2 mg/mL heparin/50 mM Tris-HCl buffer (pH 7.4) and 150 μL of 0.2 mg/mL collagen/5 mM acetate solution (pH 3.7). The resulting mixture was centrifuged at 1,000×g for 1 minute at room temperature to obtain a viscous mass. The obtained viscous mass was suspended in DMEM containing 10% FBS. The entire suspension was seeded in a 24-well Transwell culture insert and centrifuged at 400×g (gravitational acceleration) at room temperature for 1 minute. As a result, a cell layer (i.e., a cell layer containing cells forming the stroma) was formed on the membrane of the Transwell culture insert.
Subsequently, HT29 cells were seeded on the cell layer at 1×10^3 cells/well and cultured in the general-purpose medium shown in Table 4 above. On the fourth day after the start of the culture, an anti-cancer drug SN-38 (Selleck, S4908) was added to the medium in each well at a concentration of 0, 0.01, 0.1, 1 or 10 μM.
On the seventh day after the start of culture, the cells were fixed and stained for EpCAM with immunofluorescence staining, and the stained cells were counted as HT29 cells. More specifically, the area of fluorescence emission from cancer cells was calculated using a microscope system (Operetta CLS, PerkinElmer) in the fluorescence mode (fluorescence: Alexa 647). The cell viability was calculated using the following formula (3) to evaluate the drug efficacy.

In the case of `CCc1c2c(nc3ccc(O)cc13)-c1cc3c(c(=O)n1C2)COC(=O)[C@]3(O)CC` [SN-38], the “Cell viability (%)” value is 78.3 ± 9.45% with HT29 cells [1] (0.01 μM); 54.3 ± 5.45% in the series on HT29 cells [1] (0.1 μM); 35 ± 3.24% with HT29 cells [1] (1 μM); 21.3 ± 4.23% with HT29 cells [1] (10 μM); 103.3 ± 14.5% in the series with HT29 cells [2] (0.01 μM); 72.87 ± 14.57% in the series on HT29 cells [2] (0.1 μM). Also, the “Cell viability (%)” value in the series with HT29 cells [2] (1 μM) is listed as 49.3 ± 13.05%; in the series on HT29 cells [2] (10 μM), 36.5 ± 10.24%; with HT29 cells [3] (0.01 μM), 97.8 ± 20.04%; in the series with HT29 cells [3] (0.1 μM) it was 72.87 ± 14.57%; in the series with HT29 cells [3] (1 μM), 54.21 ± 13.05%; in the series with HT29 cells [3] (10 μM), 34.2 ± 9.47%.
